Reference: US10160755B2 (Plexxikon Inc., priority 2015, dated 2018)

Tests used:
FLT3-D835Y = molecular target: T1, FLT3-D835Y (Homo sapiens, UniProt P36888, D835Y); experiment: FLT3-D835Y biochemical kinase assay (AlphaScreen)
T1 construct: purchased Invitrogen PV3967
T1 sequence (P36888 27-993 D835Y): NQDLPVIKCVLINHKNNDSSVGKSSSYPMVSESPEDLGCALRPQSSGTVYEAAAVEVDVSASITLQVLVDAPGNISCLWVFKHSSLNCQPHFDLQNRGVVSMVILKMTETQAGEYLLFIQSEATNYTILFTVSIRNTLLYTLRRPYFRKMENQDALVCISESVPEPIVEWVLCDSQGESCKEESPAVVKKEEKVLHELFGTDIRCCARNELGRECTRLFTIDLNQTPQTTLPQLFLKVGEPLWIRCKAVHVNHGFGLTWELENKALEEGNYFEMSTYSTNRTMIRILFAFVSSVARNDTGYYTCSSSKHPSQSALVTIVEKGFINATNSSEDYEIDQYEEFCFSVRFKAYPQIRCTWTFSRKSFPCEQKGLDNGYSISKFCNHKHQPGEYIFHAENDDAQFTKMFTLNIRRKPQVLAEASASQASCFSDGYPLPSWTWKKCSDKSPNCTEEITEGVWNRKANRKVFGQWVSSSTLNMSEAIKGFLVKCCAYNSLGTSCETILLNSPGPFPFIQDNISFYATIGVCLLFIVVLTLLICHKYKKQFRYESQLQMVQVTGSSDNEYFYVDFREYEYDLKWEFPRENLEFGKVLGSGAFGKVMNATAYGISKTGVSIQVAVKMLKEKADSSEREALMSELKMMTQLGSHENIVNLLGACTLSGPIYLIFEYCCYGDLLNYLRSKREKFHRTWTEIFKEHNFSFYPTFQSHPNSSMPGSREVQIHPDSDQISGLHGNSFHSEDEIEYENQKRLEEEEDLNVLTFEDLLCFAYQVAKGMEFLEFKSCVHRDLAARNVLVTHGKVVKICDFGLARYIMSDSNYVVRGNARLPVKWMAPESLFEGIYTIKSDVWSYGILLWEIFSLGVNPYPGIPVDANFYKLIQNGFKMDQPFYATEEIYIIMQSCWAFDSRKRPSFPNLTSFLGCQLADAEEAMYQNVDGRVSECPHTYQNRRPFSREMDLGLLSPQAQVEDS
Outline: (§1)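 First, recombinant FLT3 variant phosphorylates a biotinylated poly(Glu4-Tyr) peptide (30 nM) with ATP at 10 μM (D835Y) or 100 μM (ITD). Streptavidin donor beads are then added for 20 min at room temperature, followed by anti-phosphotyrosine PY20 acceptor beads for 60 min. Signal at 580 nm gives IC50.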

c-Kit = c-Kit (Homo sapiens, UniProt P10721); experiment: c-Kit biochemical assay (per US 2007/0032519)
Method: The following Table 2 provides data indicating FLT3 ITD, FLT3 D835Y, and KIT biochemical activity, and BaF3 FLT3 ITD/F69L cellular inhibitory activity for exemplary compounds described in this disclosure. In the table below, activity is provided as follows: +++=0.0001<IC50<1 μM; ++=1 μM<IC50<10 μM, +=10 μM<IC50<200 μM. Assays for the biochemical activity of c-Kit and FMS were conducted according to those assays described in US Patent Application Publication number US 2007/0032519, the disclosure of which is hereby incorporated by reference in its entirety.

FLT3-ITD = molecular target: T2, FLT3-ITD (Homo sapiens, UniProt P36888); experiment: FLT3-ITD biochemical kinase assay (AlphaScreen)
T2 construct: FLT3-ITD; Invitrogen #PV6190
T2 sequence (P36888 1-993): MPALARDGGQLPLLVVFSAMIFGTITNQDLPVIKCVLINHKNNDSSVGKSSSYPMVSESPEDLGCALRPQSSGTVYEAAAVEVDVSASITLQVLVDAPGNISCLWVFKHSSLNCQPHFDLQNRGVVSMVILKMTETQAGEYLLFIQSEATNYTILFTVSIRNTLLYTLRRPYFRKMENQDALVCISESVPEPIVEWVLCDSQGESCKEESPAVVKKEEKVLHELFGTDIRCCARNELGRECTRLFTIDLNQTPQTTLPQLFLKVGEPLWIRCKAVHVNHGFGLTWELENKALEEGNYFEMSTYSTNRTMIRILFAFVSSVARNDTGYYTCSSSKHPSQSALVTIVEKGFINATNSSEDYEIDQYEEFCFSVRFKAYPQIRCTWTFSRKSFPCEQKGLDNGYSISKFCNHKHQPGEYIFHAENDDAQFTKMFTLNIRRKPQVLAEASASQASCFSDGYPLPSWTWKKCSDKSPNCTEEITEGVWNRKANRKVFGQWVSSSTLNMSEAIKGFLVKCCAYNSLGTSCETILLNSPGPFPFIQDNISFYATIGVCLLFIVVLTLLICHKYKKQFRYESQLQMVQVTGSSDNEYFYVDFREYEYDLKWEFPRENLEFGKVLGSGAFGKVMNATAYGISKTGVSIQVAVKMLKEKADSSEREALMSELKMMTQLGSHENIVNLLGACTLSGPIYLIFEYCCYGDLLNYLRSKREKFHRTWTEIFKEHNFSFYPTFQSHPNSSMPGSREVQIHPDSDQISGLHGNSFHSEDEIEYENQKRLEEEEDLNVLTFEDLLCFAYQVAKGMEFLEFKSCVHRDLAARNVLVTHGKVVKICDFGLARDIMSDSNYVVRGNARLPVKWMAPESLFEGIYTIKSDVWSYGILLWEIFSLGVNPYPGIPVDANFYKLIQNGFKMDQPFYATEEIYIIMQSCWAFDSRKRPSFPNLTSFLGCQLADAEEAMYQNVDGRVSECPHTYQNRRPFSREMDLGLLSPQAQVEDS
Outline: as §1

Sequence of c-Kit (P10721 26-976): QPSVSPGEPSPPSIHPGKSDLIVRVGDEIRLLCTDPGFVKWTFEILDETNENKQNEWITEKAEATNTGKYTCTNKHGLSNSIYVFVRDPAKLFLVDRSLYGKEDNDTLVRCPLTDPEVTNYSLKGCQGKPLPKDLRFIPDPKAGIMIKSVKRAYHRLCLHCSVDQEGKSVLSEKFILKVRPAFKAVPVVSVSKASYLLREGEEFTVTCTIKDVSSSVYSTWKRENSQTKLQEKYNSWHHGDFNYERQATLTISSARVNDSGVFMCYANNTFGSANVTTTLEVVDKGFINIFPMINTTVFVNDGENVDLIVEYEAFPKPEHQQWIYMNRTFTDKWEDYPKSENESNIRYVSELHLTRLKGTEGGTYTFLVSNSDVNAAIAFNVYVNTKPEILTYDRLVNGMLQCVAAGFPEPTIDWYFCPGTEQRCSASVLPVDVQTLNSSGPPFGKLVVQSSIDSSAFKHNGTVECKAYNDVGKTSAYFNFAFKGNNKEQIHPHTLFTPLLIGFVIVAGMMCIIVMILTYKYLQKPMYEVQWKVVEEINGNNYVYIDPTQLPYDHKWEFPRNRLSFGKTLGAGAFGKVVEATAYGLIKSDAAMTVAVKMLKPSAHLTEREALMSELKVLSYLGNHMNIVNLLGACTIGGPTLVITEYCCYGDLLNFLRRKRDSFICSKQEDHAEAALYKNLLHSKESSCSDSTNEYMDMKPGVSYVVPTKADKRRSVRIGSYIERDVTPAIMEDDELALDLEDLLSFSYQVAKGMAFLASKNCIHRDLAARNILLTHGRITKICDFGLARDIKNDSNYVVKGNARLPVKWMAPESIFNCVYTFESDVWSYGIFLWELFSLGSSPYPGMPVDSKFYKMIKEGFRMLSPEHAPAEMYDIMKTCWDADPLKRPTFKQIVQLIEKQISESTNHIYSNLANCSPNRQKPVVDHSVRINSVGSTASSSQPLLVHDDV

SMILES: c1nc2cc(-c3c[nH]c4ncc(-c5cnc(C6CC6)nc5)cc34)ccc2[nH]1 [P-027, 3-(1H-benzimidazol-5-yl)-5-(2-cyclopropylpyrimidin-5-yl)-1H-pyrrolo[2,3-b]pyridine]
- IC50 (FLT3-D835Y): 0.0001 to 1 µM
- IC50 (c-Kit): 0.0001 to 1 µM
- IC50 (FLT3-ITD): 0.0001 to 1 µM

SMILES: COc1cnc2[nH]cc(-c3ccc4scnc4c3)c2c1 [P-051, 5-(5-methoxy-1H-pyrrolo[2,3-b]pyridin-3-yl)-1,3-benzothiazole]
- IC50 (FLT3-D835Y): 0.0001 to 1 µM
- IC50 (c-Kit): 10 to 200 µM
- IC50 (FLT3-ITD): 0.0001 to 1 µM

SMILES: COc1cc(-c2cnc3[nH]cc(-c4ccc5ncn(CC(F)(F)F)c5c4)c3n2)ccn1 [P-098, 2-(2-methoxy-4-pyridyl)-7-[3-(2,2,2-trifluoroethyl)benzimidazol-5-yl]-5H-pyrrolo[2,3-b]pyrazine]
- IC50 (FLT3-D835Y): 0.0001 to 1 µM
- IC50 (c-Kit): 10 to 200 µM
- IC50 (FLT3-ITD): 0.0001 to 1 µM

SMILES: COc1cnc2[nH]cc(-c3ccc4ncn(CC5CC5)c4c3)c2c1 [P-062, 1-(cyclopropylmethyl)-6-(5-methoxy-1H-pyrrolo[2,3-b]pyridin-3-yl)benzimidazole]
- IC50 (FLT3-D835Y): 0.0001 to 1 µM
- IC50 (c-Kit): 10 to 200 µM
- IC50 (FLT3-ITD): 0.0001 to 1 µM

SMILES: COc1cnc2[nH]cc(-c3cnc4c(c3)ncn4C)c2c1 [P-055, 6-(5-methoxy-1H-pyrrolo[2,3-b]pyridin-3-yl)-3-methyl-imidazo[4,5-b]pyridine]
- IC50 (FLT3-D835Y): 10 to 200 µM
- IC50 (c-Kit): 10 to 200 µM
- IC50 (FLT3-ITD): 0.0001 to 1 µM

SMILES: COc1cc(-c2cnc3[nH]cc(-c4ccc5ncn(C)c5c4)c3c2)ccc1C#N [P-117, 2-methoxy-4-[3-(3-methylbenzimidazol-5-yl)-1H-pyrrolo[2,3-b]pyridin-5-yl]benzonitrile]
- IC50 (FLT3-D835Y): 0.0001 to 1 µM
- IC50 (c-Kit): 1 to 10 µM
- IC50 (FLT3-ITD): 0.0001 to 1 µM

SMILES: COc1cnc2[nH]cc(-c3ccc4[nH]nnc4c3)c2c1 [P-014, 5-(5-methoxy-1H-pyrrolo[2,3-b]pyridin-3-yl)-1H-benzotriazole]
- IC50 (FLT3-D835Y): 0.0001 to 1 µM
- IC50 (c-Kit): 10 to 200 µM
- IC50 (FLT3-ITD): 0.0001 to 1 µM

SMILES: Fc1cnc2[nH]cc(-c3ccc4nc[nH]c4c3)c2c1 [P-022, 3-(3H-benzimidazol-5-yl)-5-fluoro-1H-pyrrolo[2,3-b]pyridine]
- IC50 (FLT3-D835Y): 1 to 10 µM
- IC50 (c-Kit): 10 to 200 µM
- IC50 (FLT3-ITD): 1 to 10 µM

SMILES: COc1ccc(-c2cnc3[nH]cc(-c4ccc5ncn(C)c5c4)c3n2)cn1 [P-041, 2-(6-methoxy-3-pyridyl)-7-(3-methylbenzimidazol-5-yl)-5H-pyrrolo[2,3-b]pyrazine]
- IC50 (FLT3-D835Y): 0.0001 to 1 µM
- IC50 (c-Kit): 1 to 10 µM
- IC50 (FLT3-ITD): 0.0001 to 1 µM

SMILES: COc1ccc(-c2cnc3[nH]cc(-c4ccc5ncn(C)c5c4)c3c2)cn1 [P-040, 5-(6-methoxy-3-pyridyl)-3-(3-methylbenzimidazol-5-yl)-1H-pyrrolo[2,3-b]pyridine]
- IC50 (FLT3-D835Y): 0.0001 to 1 µM
- IC50 (c-Kit): 1 to 10 µM
- IC50 (FLT3-ITD): 0.0001 to 1 µM

SMILES: CS(=O)(=O)Nc1cccc(-c2cnc3[nH]cc(-c4ccc5c(c4)N(CC(F)(F)F)CCO5)c3n2)c1 [P-087, N-[3-[7-[4-(2,2,2-trifluoroethyl)-2,3-dihydro-1,4-benzoxazin-6-yl]-5H-pyrrolo[2,3-b]pyrazin-2-yl]phenyl]methanesulfonamide]
- IC50 (FLT3-D835Y): 0.0001 to 1 µM
- IC50 (c-Kit): 10 to 200 µM
- IC50 (FLT3-ITD): 0.0001 to 1 µM

SMILES: COc1cc(-c2cnc3[nH]cc(-c4ccc5ncn(C)c5c4)c3c2)ccc1Cl [P-092, 5-(4-chloro-3-methoxy-phenyl)-3-(3-methylbenzimidazol-5-yl)-1H-pyrrolo[2,3-b]pyridine]
- IC50 (FLT3-D835Y): 0.0001 to 1 µM
- IC50 (c-Kit): 0.0001 to 1 µM
- IC50 (FLT3-ITD): 0.0001 to 1 µM

SMILES: CS(=O)(=O)Nc1cccc(-c2cnc3[nH]cc(-c4ccc5c(c4)OCO5)c3n2)c1 [P-058, N-[3-[7-(1,3-benzodioxol-5-yl)-5H-pyrrolo[2,3-b]pyrazin-2-yl]phenyl]methanesulfonamide]
- IC50 (FLT3-D835Y): 0.0001 to 1 µM
- IC50 (c-Kit): 10 to 200 µM
- IC50 (FLT3-ITD): 0.0001 to 1 µM

SMILES: COc1cnc2[nH]cc(-c3ccc4ncn(CC(F)(F)F)c4c3)c2c1 [P-047, 5-methoxy-3-[3-(2,2,2-trifluoroethyl)benzimidazol-5-yl]-1H-pyrrolo[2,3-b]pyridine]
- IC50 (FLT3-D835Y): 0.0001 to 1 µM
- IC50 (c-Kit): 1 to 10 µM
- IC50 (FLT3-ITD): 0.0001 to 1 µM

SMILES: COc1cnc2[nH]cc(-c3ccc4[nH]c(C)nc4c3)c2c1 [P-015, 5-methoxy-3-(2-methyl-1H-benzimidazol-5-yl)-1H-pyrrolo[2,3-b]pyridine]
- IC50 (FLT3-D835Y): 1 to 10 µM
- IC50 (c-Kit): 10 to 200 µM
- IC50 (FLT3-ITD): 0.0001 to 1 µM

SMILES: O=C(C1CC1)N1CC=C(c2cnc3[nH]cc(-c4ccc5[nH]cnc5c4)c3c2)CC1 [P-017, [4-[3-(1H-benzimidazol-5-yl)-1H-pyrrolo[2,3-b]pyridin-5-yl]-3,6-dihydro-2H-pyridin-1-yl]-cyclopropyl-methanone]
- IC50 (FLT3-D835Y): 0.0001 to 1 µM
- IC50 (c-Kit): 1 to 10 µM
- IC50 (FLT3-ITD): 0.0001 to 1 µM

SMILES: COc1cc(-c2cnc3[nH]cc(-c4ccc5ncn(C)c5c4)c3c2)cc(C)n1 [P-124, 5-(2-methoxy-6-methyl-4-pyridyl)-3-(3-methylbenzimidazol-5-yl)-1H-pyrrolo[2,3-b]pyridine]
- IC50 (FLT3-D835Y): 0.0001 to 1 µM
- IC50 (c-Kit): 10 to 200 µM
- IC50 (FLT3-ITD): 0.0001 to 1 µM

SMILES: CS(=O)(=O)Nc1cccc(-c2cnc3[nH]cc(-c4ccc5ncn(CC(F)(F)F)c5c4)c3n2)c1 [P-069, N-[3-[7-[3-(2,2,2-trifluoroethyl)benzimidazol-5-yl]-5H-pyrrolo[2,3-b]pyrazin-2-yl]phenyl]methanesulfonamide]
- IC50 (FLT3-D835Y): 0.0001 to 1 µM
- IC50 (c-Kit): 10 to 200 µM
- IC50 (FLT3-ITD): 0.0001 to 1 µM

SMILES: CCn1cnc2ccc(-c3c[nH]c4ncc(OC)cc34)cc21 [P-048, 1-ethyl-6-(5-methoxy-1H-pyrrolo[2,3-b]pyridin-3-yl)benzimidazole]
- IC50 (FLT3-D835Y): 0.0001 to 1 µM
- IC50 (c-Kit): 10 to 200 µM
- IC50 (FLT3-ITD): 0.0001 to 1 µM

SMILES: CS(=O)(=O)Nc1cccc(-c2cnc3[nH]cc(-c4ccc5ncn(C6CCCC6)c5c4)c3n2)c1 [P-070, N-[3-[7-(3-cyclopentylbenzimidazol-5-yl)-5H-pyrrolo[2,3-b]pyrazin-2-yl]phenyl]methanesulfonamide]
- IC50 (FLT3-D835Y): 0.0001 to 1 µM
- IC50 (c-Kit): 1 to 10 µM
- IC50 (FLT3-ITD): 0.0001 to 1 µM

SMILES: COc1cnc2[nH]cc(-c3ccc4ncn(C)c4c3)c2c1 [P-016, 5-methoxy-3-(3-methylbenzimidazol-5-yl)-1H-pyrrolo[2,3-b]pyridine]
- IC50 (FLT3-D835Y): 0.0001 to 1 µM
- IC50 (c-Kit): 10 to 200 µM
- IC50 (FLT3-ITD): 0.0001 to 1 µM

SMILES: Cn1cnc2ccc(-c3c[nH]c4ncc(-c5cccc(N6CCOCC6)c5)cc34)cc21 [P-095, 4-[3-[3-(3-methylbenzimidazol-5-yl)-1H-pyrrolo[2,3-b]pyridin-5-yl]phenyl]morpholine]
- IC50 (FLT3-D835Y): 0.0001 to 1 µM
- IC50 (c-Kit): 1 to 10 µM
- IC50 (FLT3-ITD): 0.0001 to 1 µM
